# Experimental data from patent US20250177341A1, “DIETARY TRIPROPIONIN SUPPLEMENTATION TO REDUCE ADIPOSITY AND IMPROVE GLUCOSE HOMEOSTASIS” (Wisconsin Alumni Research Foundation, priority 2023, published 2025).
# What was measured:
# [1] = Experiment 3: gnotobiotic mice colonized with human fecal microbiota, body weight; details: mouse, in vivo
# From the text: To check whether the effects of tripropionin supplementation are consistent in the context of a human microbiome, we used a gnotobiotic mouse model colonized with human fecal microbiota. We colonized germ-free mice with a complex community of human fecal microbiota, induced metabolic dysregulation though feeding a high-fat diet for 8 weeks, and subjected the mice to a tripropionin- or glycerol-supplemented diet (FIG. 3A).
# At 5 and 6 weeks of age mice were placed in Allentown Sentry SPP IVC rack system (Allentown Inc., Allentown, NJ) and fed a HFD (TD08811, Envigo). Mice were then colonized with fecal microbiota from a human donor fecal specimen via gavage with a fecal slurry. The fecal slurry was prepared by collecting 200-500 mg of frozen feces and adding it to anaerobic CMM broth in an anaerobic chamber. The mixture was vortexed for 1 minute and then placed on ice until gavaging (less than 1 hour after preparation). Mice were maintained on the HFD for an additional 6 weeks before being switched to either the glycerol or tripropionin diets (n=4-5 per group). Four weeks after diet change mice were subjected to an OGTT followed by an ITT a week later. Mice were euthanized one week after ITT.
# [2] = Experiment 3: insulin tolerance test in humanized gnotobiotic mice; details: mouse, in vivo
# From the text: We colonized germ-free mice with a complex community of human fecal microbiota, induced metabolic dysregulation though feeding a high-fat diet for 8 weeks, and subjected the mice to a tripropionin- or glycerol-supplemented diet (FIG. 3A).
# Experiment 3: Germ-free (GF) male mice (C57BL/6J) were housed in sterile isolators and maintained on autoclaved chow (LabDiet 5021; LabDiet, St. Louis, MO) and sterile water ad libitum. GF cages contained Alpha-dri® (Shepherd Specialty Papers, Kalamazoo, MI) bedding along with paper huts (Bio-Huts, Bio-Serv, Flemington, NJ) and ALPHA-twist™ (Shepherd Specialty Papers) for enrichment. Monthly tests were conducted in each isolator to confirm GF status of the mice. These included a growth test of feces in rich media for 7 days at 37° C. and checking for amplification of the 16S rRNA gene using universal primers. At 5 and 6 weeks of age mice were placed in Allentown Sentry SPP IVC rack system (Allentown Inc., Allentown, NJ) and fed a HFD (TD08811, Envigo). Mice were then colonized with fecal microbiota from a human donor fecal specimen via gavage with a fecal slurry. […]
# The ITT was performed one week after the OGTT. […] Blood glucose levels were monitored as described for OGTT. Insulin tolerance curves are expressed as the relative ratio of blood glucose from the baseline.
# [3] = Experiment 1: oral glucose tolerance test; format: in vivo; details: four weeks after diet change, vs glycerol-fed mice
# Method: To assess the effect of tripropionin on adiposity and glucose homeostasis, we fed 11-week-old male C57BL/6J mice a high-fat diet (45% kcal from fat) (HFD) supplemented with either 5.3% tripropionin (w/w) or 5.3% glycerol as a control. Mice were maintained on these diets for 13 weeks, during which food consumption and body weight were measured and an oral glucose tolerance test (OGTT) and insulin tolerance test (ITT) were performed (FIG. 1A). Additionally, body composition was monitored via NMR during the last 2 weeks before sacrifice.
# Experiment 1: Male C57BL/6J mice were ordered from Jackson Laboratories (Bar Harbor, ME) maintained on chow (Teklad 8604, Inotiv, Madison, WI) and housed in a chlorinated water rack system in cages with cornhusk bedding and ALPHA-twist™. […] Mice were maintained on their respective diets for an additional 8 weeks and then transferred to single-housed metabolic cages (Promethion Core system, Sable Systems International, North Las Vegas, NV) where body weight food intake and activity level was monitored. During this period, fat and lean mass were monitored using nuclear magnetic resonance (NMR) machine fitted for mice (LF90 Body Composition Analyzer, Bruker Corporation, Billerica, MA). […]
# Prior to OGTT, mice were placed in fresh cages fasted for 4 hours. […] Blood glucose levels were measured at regular intervals between 15 and 120 minutes.
# [4] = Experiment 2: obese HFD-fed mice switched to tripropionin diet, body weight and body composition; details: mouse, in vivo
# Method: (§1) We next tested the anti-adipogenic effects of tripropionin in metabolically challenged mice. To do this, we fed a HFD for 10 weeks to induce insulin resistance and obesity and then switched mice to either the tripropionin or glycerol diet for 5 weeks (FIG. 2A). […] Mice were monitored in metabolic cages to measure respiratory quotient (RQ) for the initial 48 hours after diet change.
# (§2) Experiment 2: Male C57BL/6J mice were ordered from Jackson Laboratories (Bar Harbor, ME) maintained on a chow diet and housed in a chlorinated water rack system. Mice were switched to the HFD and maintained on this diet for 10 weeks at which point mice were fed either the glycerol or the tripropionin diets (n=6 mice per group). Mice were transferred to singly housed metabolic cages, as described above, to measure respiratory quotient, body weight, food intake, and energy expenditure. Five weeks after diet change mice underwent an OGTT and then an ITT one week later.
# [5] = Experiment 1: high-fat diet supplemented with tripropionin, body weight, food consumption, body composition by NMR; design: species or system mice; details: mouse, in vivo
# From the text: Experiment 1: Male C57BL/6J mice were ordered from Jackson Laboratories (Bar Harbor, ME) maintained on chow (Teklad 8604, Inotiv, Madison, WI) and housed in a chlorinated water rack system in cages with cornhusk bedding and ALPHA-twist™. At 11 weeks of age, the mice were switched to either a glycerol (TD220541) or tripropionin diet (TD220540) from Envigo (Madison, WI) with a sample size of 6 mice per treatment. […] Mice were maintained on their respective diets for an additional 8 weeks and then transferred to single-housed metabolic cages (Promethion Core system, Sable Systems International, North Las Vegas, NV) where body weight food intake and activity level was monitored. During this period, fat and lean mass were monitored using nuclear magnetic resonance (NMR) machine fitted for mice (LF90 Body Composition Analyzer, Bruker Corporation, Billerica, MA). […]
# [6] = Experiment 2: respiratory quotient in metabolic cages; design: species or system mice; details: mouse, in vivo
# Method: as §1, §2
# [7] = Experiment 1: insulin tolerance test; design: species or system mice; details: mouse, in vivo
# From the text: Experiment 1: Male C57BL/6J mice were ordered from Jackson Laboratories (Bar Harbor, ME) maintained on chow (Teklad 8604, Inotiv, Madison, WI) and housed in a chlorinated water rack system in cages with cornhusk bedding and ALPHA-twist™. At 11 weeks of age, the mice were switched to either a glycerol (TD220541) or tripropionin diet (TD220540) from Envigo (Madison, WI) with a sample size of 6 mice per treatment. […] One week later, mice were subjected to an ITT. […] Mice were sacrificed at 24 weeks of age.
# The ITT was performed one week after the OGTT. Mice were fasted for 4 hours in fresh cages and baseline blood glucose levels were taken from tail blood. Insulin was administered at a rate of 0.75 IU per Kg body weight via IP injection. Blood glucose levels were monitored as described for OGTT. Insulin tolerance curves are expressed as the relative ratio of blood glucose from the baseline.
compound,measurement,setting,value
"CCC(=O)OCC(COC(=O)CC)OC(=O)CC [tripropionin, 2,3-di(propanoyloxy) propyl propanoate]",body weight,[1],reduced body weight
same,insulin sensitivity (ITT),[2],improved insulin sensitivity
same,glucose tolerance (OGTT),[3],improved glucose tolerance
same,body weight,[4],reduced body weight
same,fat mass (NMR),[4],reduction in fat mass
same,onset of body weight reduction,[4],significant differences observed just three days after the diet change
same,body weight,[5],significantly reduced body weight
same,fat mass (NMR),[5],primarily due to differences in fat mass
same,respiratory quotient (RQ),[6],reduced
same,insulin sensitivity (ITT),[7],improved insulin sensitivity
